Experimental data reported in patent US12351557B2, “Chemical compound manufacture, new salt form, and therapeutic uses thereof” (Eustralis Pharmaceuticals Limited (Trading As Pressura …, priority 2018, dated 2025).
Structures can show the parent of a compound that is named as a salt. Where two headings read alike, the source gives them in different places.

Tests used:
[1] = Qualitative solubility of free base in 50 solvents; format: physicochemical; conditions: for Qualitative solubility in solvents: organic solvents, 50 solvents studied
Text: The solubility of compound of Formula (1) was first qualitatively studied in 50 solvents. In all SAS experiments, the amorphous free base of compound of formula (1) was obtained after evaporation of the experiments.

[2] = pKa estimate; format: physicochemical; conditions: free base
[3] = Hydroscopicity (water sorption at 90% RH); format: physicochemical
[4] = Polymorphism risk assessment; conditions: 2HCl salt physicochemical summary
Description: Decomposition/melting range temperature and presence of solvate molecules are estimated from thermal analyses. The polymorphism risk was assessed base on the number of identified forms during this work and reproducibility of the salt screen target patterns.

[5] = Stability study, samples stored at 40° C./75% RH; format: physicochemical
[6] = pH of solution in purified water; format: physicochemical; conditions: 5 mg/mL solution in purified water
Description: pH: 2 to 3 (5 mg/mL solution in purified water).

[7] = Solubility of 2HCl salt in solvents; format: physicochemical
Description: A summary of the physicochemical characteristics of 2HCl salt of Compound of Formula (1) is provided below.
Solubility: very soluble in water ([…]0.2 mg/μL), freely soluble in ethanol (0.1-0.2 mg/μL), sparingly soluble in 1-propanol and acetonitrile (0.01-0.03 mg/μL).

## Cc1ccccc1-c1cc(N2CCN(C)CC2)ncc1C(=O)N(C)Cc1cc(C(F)(F)F)cc(C(F)(F)F)c1 [Compound of Formula (1), N-{[3,5-Bis(trifluoromethyl)phenyl]methyl}-N-methyl-4-(2-methylphenyl)-6-(4-methyl-1-piperazinyl)-3-pyridinecarboxamide]
[1]
  Qualitative solubility in solvents: very soluble or soluble in many solvents
[1]; listed as free base
  Qualitative solubility in solvents: very soluble or soluble in almost all solvents
[1]; water
  Behaviour of water as solvent: antisolvent
[2]; read-out: pKa 1 (estimate)
  pKa: 7.54
[2]; read-out: pKa 2 (estimate)
  pKa: 4.05

## Cc1ccccc1-c1cc(N2CCN(C)CC2)ncc1C(=O)N(C)Cc1cc(C(F)(F)F)cc(C(F)(F)F)c1 [Compound of formula (1) 2HCl salt]
[3]
  Hydroscopicity (Water sorption at 90% RH): 3.2%
[4]
  Polymorphism: Not detectable
[5]; 0 months
  Appearance (white to yellow powder): Complies
  Assay (% "as is"): 95.0%
  Assay (% anhydrous): 100.0%
  Related Substances: Any other unknown: RRT 0.89: 0.007%
  Related Substances: Intermediate 3: Int 3: 0.69%
  Related Substances: RRT - 0.89: RRT 0.85: 0.34%
  Related Substances: RRT - 1.27: RRT 1.27: 0.27%
  Related Substances: Total Impurities: 1.37%
  Water Content: 5.0%
  pH: 2.31
[5]; 1 month
  Appearance (white to yellow powder): Complies
  Assay (% "as is"): 94.8%
  Assay (% anhydrous): 99.8%
  Related Substances: Any other unknown: RRT 0.90: 0.07%
  Related Substances: Intermediate 3: Int 3: 0.71%
  Related Substances: RRT - 0.89: RRT 0.89: 0.36%
  Related Substances: RRT - 1.27: RRT 1.28: 0.27%
  Related Substances: Total Impurities: 1.41%
  Water Content: 4.99%
  pH: 2.39
[5]; 3 months
  Appearance (white to yellow powder): Complies
  Assay (% "as is"): 94.5%
  Assay (% anhydrous): 100.1%
  Related Substances: Any other unknown: RRT 0.91: 0.05%
  Related Substances: Intermediate 3: Int 3: 0.71%
  Related Substances: RRT - 0.89: RRT 0.90: 0.36%
  Related Substances: RRT - 1.27: RRT 1.27: 0.26
  Related Substances: Total Impurities: 1.38%
  Water Content: 5.58%
  pH: 2.33
[5]; 6 months
  Appearance (white to yellow powder): Complies
  Assay (% "as is"): 94.6%
  Assay (% anhydrous): 99.7%
  Related Substances: Any other unknown: RRT 0.91: 0.06%
  Related Substances: Intermediate 3: Int 3: 0.71%
  Related Substances: RRT - 0.89: RRT 0.90: 0.35%
  Related Substances: RRT - 1.27: RRT 1.27: 0.27%
  Related Substances: Total Impurities: 1.39%
  Water Content: 5.17%
  pH: 2.47
[5]; Initial Release
  Appearance (white to yellow powder): Complies
  Assay (% "as is"): 98.3%
  Assay (% anhydrous): 99.3%
  Related Substances: Intermediate 3: Int 3: 0.71%
  Related Substances: RRT - 0.89: RRT 0.87: 0.35%
  Related Substances: RRT - 1.27: RRT 1.27: 0.28%
  Related Substances: Total Impurities: 1.34%
  Water Content: 1.0%
  pH: 2.31
[6]
  pH: 2 to 3
[7]; 1-propanol, sparingly soluble
  Solubility in 1-propanol: 10000 to 30000 µg/mL
[7]; acetonitrile, sparingly soluble
  Solubility in acetonitrile: 10000 to 30000 µg/mL
[7]; ethanol, freely soluble
  Solubility in ethanol: 100000 to 200000 µg/mL
